Series [1] can be described thus: Tmax in ICR mouse at 50 mg/kg, po. In kind it is ADME, organism-based. The conditions noted are these: in vivo.
A short description of series [2]: AUClast in Sprague-Dawley rat at 1 mg/kg, iv. In kind it is ADME, organism-based. Set-up: dose 1 mg/kg, route iv. The conditions noted are these: in vivo.
Series [3] is described as follows: Apparent permeability of compound across apical to basal side in human Caco2 cells at 10 uM incubated for 120 mins by LC-MS/MS analysis. The conditions noted are these: Caco-2. In general terms: Caco-2 cells form a polarised layer with tight junctions and transporters.
A further series concerns the target Cytochrome P450 3A4 (Homo sapiens, UniProt P08684). The series can be described thus: Inhibition of CYP3A4-T (unknown origin). It counts as ADME.
Series [4] can be described thus: Volume of distribution at steady state in Cynomolgous monkey at 1 mg/kg, iv. It counts as ADME, organism-based, Macaca fascicularis. The conditions noted are these: cynomolgus monkey, in vivo, read-out: Vdss.
In series [5] the target is Voltage-gated inwardly rectifying potassium channel KCNH2 (Homo sapiens, UniProt Q12809). The series can be described thus: Inhibition of hERG. In kind it is toxicity. A general note: hERG is a cardiac potassium channel; its block is linked to QT prolongation.
Series [6] is described as follows: AUClast in Beagle dog at 10 mg/kg, po. It counts as ADME, organism-based, Canis lupus familiaris. The arrangement: dose 10 mg/kg, route po. The conditions noted are these: in vivo.
A short description of series [7]: AUClast in Cynomolgous monkey at 1 mg/kg, iv. In kind it is ADME, organism-based, Macaca fascicularis. Set-up: dose 1 mg/kg, route iv. The conditions noted are these: cynomolgus monkey, in vivo.
A short description of series [8]: Clearance in ICR mouse at 1 mg/kg, iv. In kind it is ADME, organism-based. The conditions noted are these: in vivo.
A short description of series [9]: AUClast in Beagle dog at 3 mg/kg, iv. In kind it is ADME, organism-based, Canis lupus familiaris. The arrangement: dose 3 mg/kg, route iv. The conditions noted are these: in vivo.
Series [10] in a line: Oral bioavailability in Cynomolgous monkey at 50 mg/kg. In kind it is ADME, organism-based, Macaca fascicularis. The conditions noted are these: cynomolgus monkey, in vivo.
Series [11] can be described thus: Volume of distribution at steady state in Beagle dog at 3 mg/kg, iv. The conditions noted are these: in vivo, read-out: Vdss. In kind it is ADME, organism-based, Canis lupus familiaris.
Series [12] can be described thus: Unbound fraction in mouse plasma. In kind it is ADME, cell-free.
For series [13], the system named is MDA-MB-231. The series can be described thus: Antitumor activity against human MDA-MB-231 cells xenografted in humanized NCG mouse assessed as tumor growth inhibition at 10 mg/kg, IG bid measured after 22 days relative to control. In kind it is functional. The conditions noted are these: MDA-MB-231, po, 528 h, time 22 day, read-out: TGI.
A short description of series [14]: Clearance in Beagle dog at 3 mg/kg, iv. It counts as ADME, organism-based, Canis lupus familiaris. The conditions noted are these: in vivo.
The test system of series [15] is MDA-MB-231. As to the kind of experiment: Antitumor activity against human MDA-MB-231 cells xenografted in humanized NCG mouse assessed as tumor growth inhibition at 10 mg/kg, po bid relative to control. In kind it is functional. The conditions noted are these: read-out: TGI.
A short description of series [16]: Stability in human hepatocytes assessed as half life. It counts as ADME, cell-based, Hepatocyte.
Another series addresses Cytochrome P450 2D6 (Homo sapiens, UniProt P10635). The series can be described thus: Inhibition of CYP2D6 (unknown origin). It counts as ADME.

pIC50: −log10 of the molar value.

Cytochrome P450 2D6, sequence (P10635 whole entry): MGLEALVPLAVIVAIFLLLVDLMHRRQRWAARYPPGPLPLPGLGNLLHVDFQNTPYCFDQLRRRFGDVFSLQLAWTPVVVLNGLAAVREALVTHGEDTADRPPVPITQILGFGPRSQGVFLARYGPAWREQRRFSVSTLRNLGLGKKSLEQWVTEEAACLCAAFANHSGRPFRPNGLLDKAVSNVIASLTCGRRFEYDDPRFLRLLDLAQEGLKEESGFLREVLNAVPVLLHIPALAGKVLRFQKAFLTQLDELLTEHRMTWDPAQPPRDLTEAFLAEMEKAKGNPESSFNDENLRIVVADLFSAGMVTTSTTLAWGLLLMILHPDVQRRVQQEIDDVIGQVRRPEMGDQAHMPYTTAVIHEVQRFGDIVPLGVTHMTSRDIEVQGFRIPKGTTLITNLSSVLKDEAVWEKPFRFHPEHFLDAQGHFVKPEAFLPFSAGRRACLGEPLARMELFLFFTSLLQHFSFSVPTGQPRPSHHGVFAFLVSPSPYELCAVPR
Cytochrome P450 3A4, sequence (P08684 whole entry): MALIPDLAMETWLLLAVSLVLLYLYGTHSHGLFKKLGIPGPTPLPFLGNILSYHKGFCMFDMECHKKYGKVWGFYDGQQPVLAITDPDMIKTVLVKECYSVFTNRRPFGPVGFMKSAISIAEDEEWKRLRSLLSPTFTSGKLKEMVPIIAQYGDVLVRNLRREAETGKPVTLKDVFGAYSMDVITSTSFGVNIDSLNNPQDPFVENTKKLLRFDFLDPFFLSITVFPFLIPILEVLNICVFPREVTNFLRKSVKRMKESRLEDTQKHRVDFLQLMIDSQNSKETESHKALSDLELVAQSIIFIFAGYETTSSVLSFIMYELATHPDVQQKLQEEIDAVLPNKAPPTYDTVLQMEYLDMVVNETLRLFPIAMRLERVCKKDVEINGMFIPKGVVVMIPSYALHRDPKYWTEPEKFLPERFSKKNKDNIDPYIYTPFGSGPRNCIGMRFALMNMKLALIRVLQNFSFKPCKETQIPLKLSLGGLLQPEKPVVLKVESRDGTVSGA
Voltage-gated inwardly rectifying potassium channel KCNH2, sequence (Q12809 whole entry): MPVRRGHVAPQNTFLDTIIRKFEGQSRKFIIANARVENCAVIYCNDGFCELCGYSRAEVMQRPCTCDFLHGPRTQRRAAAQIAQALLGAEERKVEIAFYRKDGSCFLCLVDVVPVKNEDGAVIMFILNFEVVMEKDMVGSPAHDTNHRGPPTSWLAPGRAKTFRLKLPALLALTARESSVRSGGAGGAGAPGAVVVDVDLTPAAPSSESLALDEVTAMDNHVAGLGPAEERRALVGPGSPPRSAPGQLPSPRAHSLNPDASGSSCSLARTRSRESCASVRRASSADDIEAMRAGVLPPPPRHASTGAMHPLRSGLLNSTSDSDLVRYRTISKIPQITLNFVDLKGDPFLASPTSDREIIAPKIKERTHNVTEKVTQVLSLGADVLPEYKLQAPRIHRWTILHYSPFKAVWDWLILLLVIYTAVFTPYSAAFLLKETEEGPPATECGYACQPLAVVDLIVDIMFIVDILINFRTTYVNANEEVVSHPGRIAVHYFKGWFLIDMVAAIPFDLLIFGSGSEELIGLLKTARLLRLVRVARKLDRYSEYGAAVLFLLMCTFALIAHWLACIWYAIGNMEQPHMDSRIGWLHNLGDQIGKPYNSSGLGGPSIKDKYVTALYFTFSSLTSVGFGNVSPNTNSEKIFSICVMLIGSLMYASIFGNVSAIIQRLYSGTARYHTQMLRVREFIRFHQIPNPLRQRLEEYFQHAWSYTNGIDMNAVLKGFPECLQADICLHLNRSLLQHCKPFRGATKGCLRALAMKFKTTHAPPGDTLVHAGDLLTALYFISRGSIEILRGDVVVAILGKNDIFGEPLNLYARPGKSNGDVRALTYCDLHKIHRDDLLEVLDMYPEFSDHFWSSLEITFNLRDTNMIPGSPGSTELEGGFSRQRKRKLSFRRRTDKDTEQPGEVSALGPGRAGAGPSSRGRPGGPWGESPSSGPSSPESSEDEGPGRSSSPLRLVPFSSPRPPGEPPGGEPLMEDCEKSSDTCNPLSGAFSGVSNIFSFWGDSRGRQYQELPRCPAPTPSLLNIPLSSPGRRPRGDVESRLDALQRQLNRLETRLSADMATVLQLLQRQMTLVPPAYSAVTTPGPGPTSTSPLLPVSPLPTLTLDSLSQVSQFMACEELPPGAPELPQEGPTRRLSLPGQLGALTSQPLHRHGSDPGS

Regarding `Cc1cc(S(=O)(=O)N[C@H](C)C2CCN(C)CC2)ccc1NC(=O)c1ccccc1C`, in series [1], the Tmax (in general, the time at which the peak concentration occurs) amounted to 0.5 h. Also, the exposure AUC(0-t) – broadly, the area under the concentration-time curve up to a stated or last time point – amounted to 395 ng·h/mL in series [2], 6480 ng·h/mL in series [6], 538 ng·h/mL in series [7] and 3550 ng·h/mL in [9]. For the same compound, the Papp A→B – broadly, how fast a substance crosses the layer from the apical side – at 2 h, 10 µM in [3] turned out to be 3.7 ×10⁻⁶ cm/s. The pIC50 (usually −log10 of the IC50, conventionally taken in molar units) against Cytochrome P450 3A4 is less than 5.00; in series [5], less than 4.52; on Cytochrome P450 2D6, less than 5.00. In addition, the Vd in [4] came to 2.8 L/kg; in [11], 2.2 L/kg. Also, the clearance (in general, a measure of how efficiently the substance is removed, as volume per time) in [8] came to 24.5 mL/min/kg; in series [14], 14.2 mL/min/kg. For the same compound, the bioavailability in [10] worked out at 105%. The fraction unbound (in general, free concentration divided by total concentration) in series [12] turned out to be 0.449. Also, the inhibition in vivo at 10 mg/kg was determined as 28.3% with MDA-MB-231 [13] and 47.2% in the series on MDA-MB-231 [15]. Moreover, the half-life – broadly, the time in which the quantity being followed falls by half – in series [16] is 8.7 h.

These data come from ChEMBL document CHEMBL5380842, “Discovery of a Potent and Selective CCR8 Small Molecular Antagonist IPG7236 for the Treatment of Cancer” (J Med Chem, 2023).
